Laboratory results as given in ChEMBL document CHEMBL3885861, “Open TG-GATES”.

Organism: Rattus norvegicus
Assay: Open TG-GATES - Regimen: Single
Assay type: toxicity, organism-based, Sprague-Dawley
Set-up: regimen Single, gender Male, age 6 weeks
Details: in vivo, po, 300 mg/kg, route gavage, dose level High; for APTT / Bas / Eos / Fbg / Hb / Ht / Lym / MCH / MCHC / MCV / Mono / Neu / PT / Plat / RBC / Ret / WBC: tissue Blood; for KIDNEY_L / KIDNEY_R / KIDNEY_TOTAL: tissue Kidney; for LIVER: tissue Liver; for A/G / ALP / ALT / AST / BUN / CRE / Ca / Cl / DBIL / GLC / IP / K / LDH / Na / PL / RALB / TBIL / TC / TG / TP / gamma-GTP: tissue Plasma

`Cc1cccc(Nc2ccccc2C(=O)O)c1C` [MEFENAMIC ACID] was tested, and the TERMINAL_BW (3 h) was 215.2 g, the APTT (3 h) was 18.8 s and the Bas (3 h) was 0%. The Eos (3 h) was 1.2%, the Fbg (3 h) was 229.4 mg/dL and the Hb (3 h) was 12.9 g/dL. The Ht (3 h) was 36.2%, the Lym (3 h) was 73.6% and the MCH (3 h) was 21.8 pg. For the same compound, the MCHC (3 h) was 35.6%, the MCV (3 h) was 61.3 fL and the Mono (3 h) was 2.8%. For the same compound, the Neu (3 h) was 20.2%, the PT (3 h) was 12.4 s and the Plat (3 h) was 115.5 x10_4/uL. It also gave an RBC (3 h) of 591.2 x10_4/ul, a Ret (3 h) of 7.5% and a WBC (3 h) of 95.9 x10_2/uL. The KIDNEY_L (3 h) was 1 g, the KIDNEY_R (3 h) was 1 g and the KIDNEY_TOTAL (3 h) was 2 g. It also gave an LIVER (3 h) of 9.5 g, an A/G (3 h) of 1.5 and an ALP (3 h) of 832.8 IU/L. The ALT (3 h) was 35.8 IU/L, the AST (3 h) was 66.4 IU/L and the BUN (3 h) was 11.6 mg/dL. The CRE (3 h) was 0.4 mg/dL, the Ca (3 h) was 10.7 mg/dL and the Cl (3 h) was 102.6 meq/L. The DBIL (3 h) was 0.072 mg/dL, the GLC (3 h) was 181.2 mg/dL and the IP (3 h) was 8.6 mg/dL. The K (3 h) was 4.3 meq/L, the LDH (3 h) was 184 IU/L and the Na (3 h) was 139.6 meq/L. It also gave a PL (3 h) of 134.2 mg/dL, an RALB (3 h) of 3.2 g/dL and a TBIL (3 h) of 0.1 mg/dL. For the same compound, the TC (3 h) was 73.2 mg/dL, the TG (3 h) was 38.4 mg/dL and the TP (3 h) was 5.4 g/dL. For the same compound, the gamma-GTP (3 h) was 1.4 IU/L, the TERMINAL_BW (6 h) was 215.5 g and the APTT (6 h) was 18.9 s. The Bas (6 h) was 0%, the Eos (6 h) was 1% and the Fbg (6 h) was 220 mg/dL. For the same compound, the Hb (6 h) was 13.2 g/dL, the Ht (6 h) was 36.8% and the Lym (6 h) was 73.2%. It also gave an MCH (6 h) of 21.5 pg, an MCHC (6 h) of 35.8% and an MCV (6 h) of 60.2 fL. It also gave a Mono (6 h) of 3%, a Neu (6 h) of 19.6% and a PT (6 h) of 12.7 s. For the same compound, the Plat (6 h) was 114.8 x10_4/uL, the RBC (6 h) was 612.4 x10_4/ul and the Ret (6 h) was 7.5%. It also gave a WBC (6 h) of 106.7 x10_2/uL, a KIDNEY_L (6 h) of 1 g and a KIDNEY_R (6 h) of 1 g. The KIDNEY_TOTAL (6 h) was 2 g, the LIVER (6 h) was 8.8 g and the A/G (6 h) was 1.6. For the same compound, the ALP (6 h) was 1032.8 IU/L, the ALT (6 h) was 31.2 IU/L and the AST (6 h) was 60.8 IU/L. For the same compound, the BUN (6 h) was 13 mg/dL, the CRE (6 h) was 0.3 mg/dL and the Ca (6 h) was 10.4 mg/dL. It also gave a Cl (6 h) of 104.2 meq/L, a DBIL (6 h) of 0.06 mg/dL and a GLC (6 h) of 194.6 mg/dL. For the same compound, the IP (6 h) was 9.1 mg/dL, the K (6 h) was 4.1 meq/L and the LDH (6 h) was 175 IU/L. For the same compound, the Na (6 h) was 140.2 meq/L, the PL (6 h) was 133.4 mg/dL and the RALB (6 h) was 3.3 g/dL. It also gave a TBIL (6 h) of 0.1 mg/dL, a TC (6 h) of 75.4 mg/dL and a TG (6 h) of 39 mg/dL. It also gave a TP (6 h) of 5.4 g/dL, a gamma-GTP (6 h) of 1 IU/L and a TERMINAL_BW (9 h) of 211.4 g. For the same compound, the APTT (9 h) was 17.9 s, the Bas (9 h) was 0% and the Eos (9 h) was 1%. For the same compound, the Fbg (9 h) was 221 mg/dL, the Hb (9 h) was 13.1 g/dL and the Ht (9 h) was 36.7%. It also gave a Lym (9 h) of 70.4%, an MCH (9 h) of 21.7 pg and an MCHC (9 h) of 35.7%. For the same compound, the MCV (9 h) was 60.7 fL, the Mono (9 h) was 2.6% and the Neu (9 h) was 22.8%. It also gave a PT (9 h) of 13.1 s, a Plat (9 h) of 112.4 x10_4/uL and an RBC (9 h) of 604.8 x10_4/ul. The Ret (9 h) was 7.5%, the WBC (9 h) was 77.5 x10_2/uL and the KIDNEY_L (9 h) was 1 g. For the same compound, the KIDNEY_R (9 h) was 1 g, the KIDNEY_TOTAL (9 h) was 2 g and the LIVER (9 h) was 8.1 g. The A/G (9 h) was 1.6, the ALP (9 h) was 800.8 IU/L and the ALT (9 h) was 29.8 IU/L. For the same compound, the AST (9 h) was 58.8 IU/L, the BUN (9 h) was 14.2 mg/dL and the CRE (9 h) was 0.4 mg/dL. It also gave a Ca (9 h) of 10.5 mg/dL, a Cl (9 h) of 104.8 meq/L and a DBIL (9 h) of 0.068 mg/dL. It also gave a GLC (9 h) of 187.4 mg/dL, an IP (9 h) of 9.4 mg/dL and a K (9 h) of 4.2 meq/L. For the same compound, the LDH (9 h) was 173.6 IU/L, the Na (9 h) was 140.8 meq/L and the PL (9 h) was 119 mg/dL. For the same compound, the RALB (9 h) was 3.4 g/dL, the TBIL (9 h) was 0.1 mg/dL and the TC (9 h) was 65 mg/dL. For the same compound, the TG (9 h) was 35.6 mg/dL, the TP (9 h) was 5.5 g/dL and the gamma-GTP (9 h) was 1 IU/L. The TERMINAL_BW (24 h) was 225 g, the APTT (24 h) was 18.3 s and the Bas (24 h) was 0%. It also gave an Eos (24 h) of 0.8%, a Fbg (24 h) of 289.8 mg/dL and a Hb (24 h) of 12.9 g/dL. It also gave a Ht (24 h) of 36.8%, a Lym (24 h) of 60.4% and an MCH (24 h) of 22 pg. The MCHC (24 h) was 35.1%, the MCV (24 h) was 62.8 fL and the Mono (24 h) was 3%. It also gave a Neu (24 h) of 31.4%, a PT (24 h) of 11.8 s and a Plat (24 h) of 115.4 x10_4/uL. The RBC (24 h) was 585.4 x10_4/ul, the Ret (24 h) was 7% and the WBC (24 h) was 131.5 x10_2/uL. The KIDNEY_L (24 h) was 1 g, the KIDNEY_R (24 h) was 1 g and the KIDNEY_TOTAL (24 h) was 2.1 g. The LIVER (24 h) was 10.5 g, the A/G (24 h) was 1.5 and the ALP (24 h) was 850.8 IU/L. The ALT (24 h) was 36 IU/L, the AST (24 h) was 61.4 IU/L and the BUN (24 h) was 14.2 mg/dL. For the same compound, the CRE (24 h) was 0.4 mg/dL, the Ca (24 h) was 10.4 mg/dL and the Cl (24 h) was 103.6 meq/L. For the same compound, the DBIL (24 h) was 0.08 mg/dL, the GLC (24 h) was 185.2 mg/dL and the IP (24 h) was 7.8 mg/dL. It also gave a K (24 h) of 3.8 meq/L, an LDH (24 h) of 187.2 IU/L and a Na (24 h) of 141.4 meq/L. It also gave a PL (24 h) of 133.4 mg/dL, an RALB (24 h) of 3 g/dL and a TBIL (24 h) of 0.1 mg/dL. It also gave a TC (24 h) of 67 mg/dL, a TG (24 h) of 100.2 mg/dL and a TP (24 h) of 5 g/dL. The gamma-GTP (24 h) was 2 IU/L.
